Source: the NIST ThermoML archive (doi:10.1021/je800150h)
Numbers after ± are expanded uncertainties.

Assay: xn = mol fraction of the nth substance listed
Conditions: 101 kPa, Liquid

CCO [ethanol] + O
Conditions	mass density [kg/m3]	viscosity [mPa·s]
268.1 K, x2 = 0.1	824.9 ± 3.8	2.307 ± 0.11
268.1 K, x2 = 0.2	838.2 ± 3.9	2.805 ± 0.13
268.1 K, x2 = 0.3	852.2 ± 4	3.345 ± 0.15
268.1 K, x2 = 0.4	867.7 ± 4.1	3.991 ± 0.18
268.1 K, x2 = 0.5	886.6 ± 4.2	4.829 ± 0.22
268.1 K, x2 = 0.6	908.1 ± 4.3	5.931 ± 0.26
268.1 K, x2 = 0.7	931.6 ± 4.4	7.172 ± 0.3
268.1 K, x2 = 0.8	951 ± 4.5	7.549 ± 0.32
268.1 K, x2 = 0.9	977.3 ± 4.6	6.025 ± 0.26
273.1 K, x2 = 0.1	820.3 ± 3.6	2.059 ± 0.096
273.1 K, x2 = 0.2	833.7 ± 3.7	2.491 ± 0.12
273.1 K, x2 = 0.3	847.7 ± 3.8	2.938 ± 0.14
273.1 K, x2 = 0.4	863.4 ± 3.9	3.451 ± 0.16
273.1 K, x2 = 0.5	882.1 ± 3.9	4.123 ± 0.19
273.1 K, x2 = 0.6	903.5 ± 4.1	4.978 ± 0.23
273.1 K, x2 = 0.7	927.1 ± 4.2	5.947 ± 0.26
273.1 K, x2 = 0.8	948 ± 4.3	6.169 ± 0.27
273.1 K, x2 = 0.9	975.6 ± 4.4	4.997 ± 0.23
278.1 K, x2 = 0.1	815.9 ± 3.4	1.837 ± 0.087
278.1 K, x2 = 0.2	829 ± 3.5	2.21 ± 0.1
278.1 K, x2 = 0.3	842.9 ± 3.6	2.579 ± 0.12
278.1 K, x2 = 0.4	858.8 ± 3.6	2.98 ± 0.14
278.1 K, x2 = 0.5	877.7 ± 3.7	3.518 ± 0.16
278.1 K, x2 = 0.6	899.3 ± 3.8	4.176 ± 0.19
278.1 K, x2 = 0.7	922.7 ± 4	4.933 ± 0.22
278.1 K, x2 = 0.8	945 ± 4.1	5.037 ± 0.23
278.1 K, x2 = 0.9	973.2 ± 4.2	4.089 ± 0.19
283.1 K, x2 = 0.1	811.4 ± 3.2	1.639 ± 0.078
283.1 K, x2 = 0.2	824.7 ± 3.3	1.959 ± 0.092
283.1 K, x2 = 0.3	838.5 ± 3.4	2.26 ± 0.11
283.1 K, x2 = 0.4	854.1 ± 3.4	2.57 ± 0.12
283.1 K, x2 = 0.5	872.8 ± 3.5	2.995 ± 0.14
283.1 K, x2 = 0.6	894.6 ± 3.6	3.499 ± 0.16
283.1 K, x2 = 0.7	918.7 ± 3.8	4.093 ± 0.19
283.1 K, x2 = 0.8	941.4 ± 3.9	4.102 ± 0.19
283.1 K, x2 = 0.9	970.8 ± 4	3.34 ± 0.15
288.15 K, x2 = 0.1	806.9 ± 3	1.51 ± 0.072
288.15 K, x2 = 0.2	820.1 ± 3.1	1.721 ± 0.081
288.15 K, x2 = 0.3	833.9 ± 3.1	1.98 ± 0.093
288.15 K, x2 = 0.4	849.5 ± 3.2	2.212 ± 0.1
288.15 K, x2 = 0.5	868.5 ± 3.3	2.539 ± 0.12
288.15 K, x2 = 0.6	889.6 ± 3.4	2.922 ± 0.13
288.15 K, x2 = 0.7	914.5 ± 3.6	3.372 ± 0.15
288.15 K, x2 = 0.8	938 ± 3.7	3.433 ± 0.16
288.15 K, x2 = 0.9	967.3 ± 3.8	2.706 ± 0.12
293.15 K, x2 = 0.1	802.1 ± 2.8	1.355 ± 0.065
293.15 K, x2 = 0.2	815.6 ± 2.9	1.515 ± 0.072
293.15 K, x2 = 0.3	829.4 ± 2.9	1.715 ± 0.081
293.15 K, x2 = 0.4	845 ± 3	1.901 ± 0.089
293.15 K, x2 = 0.5	863.8 ± 3.1	2.153 ± 0.1
293.15 K, x2 = 0.6	885.1 ± 3.2	2.463 ± 0.11
293.15 K, x2 = 0.7	909.9 ± 3.4	2.842 ± 0.13
293.15 K, x2 = 0.8	934.6 ± 3.5	2.841 ± 0.13
293.15 K, x2 = 0.9	963.7 ± 3.6	2.268 ± 0.11
298.15 K, x2 = 0.1	797.7 ± 3	1.249 ± 0.06
298.15 K, x2 = 0.2	811 ± 3	1.353 ± 0.065
298.15 K, x2 = 0.3	825.1 ± 3.1	1.513 ± 0.072
298.15 K, x2 = 0.4	840.6 ± 3.2	1.651 ± 0.078
298.15 K, x2 = 0.5	859.2 ± 3.3	1.84 ± 0.09
298.15 K, x2 = 0.6	880.6 ± 3.4	2.089 ± 0.098
298.15 K, x2 = 0.7	905.3 ± 3.5	2.35 ± 0.11
298.15 K, x2 = 0.8	931.3 ± 3.7	2.45 ± 0.11
298.15 K, x2 = 0.9	960.3 ± 3.8	1.92 ± 0.09
303.15 K, x2 = 0.1	793 ± 3.1	1.156 ± 0.056
303.15 K, x2 = 0.2	806 ± 3.2	1.218 ± 0.059
303.15 K, x2 = 0.3	820.6 ± 3.3	1.356 ± 0.065
303.15 K, x2 = 0.4	836.1 ± 3.4	1.446 ± 0.069
303.15 K, x2 = 0.5	854.8 ± 3.4	1.598 ± 0.076
303.15 K, x2 = 0.6	876.1 ± 3.6	1.812 ± 0.085
303.15 K, x2 = 0.7	901 ± 3.7	2.04 ± 0.095
303.15 K, x2 = 0.8	927.6 ± 3.8	2.101 ± 0.098
303.15 K, x2 = 0.9	956.2 ± 4	1.656 ± 0.078
308.15 K, x2 = 0.1	788.2 ± 3.3	1.067 ± 0.052
308.15 K, x2 = 0.2	801.4 ± 3.4	1.11 ± 0.054
308.15 K, x2 = 0.3	816 ± 3.4	1.215 ± 0.059
308.15 K, x2 = 0.4	831.4 ± 3.5	1.296 ± 0.063
308.15 K, x2 = 0.5	850.1 ± 3.6	1.407 ± 0.067
308.15 K, x2 = 0.6	871.4 ± 3.7	1.582 ± 0.075
308.15 K, x2 = 0.7	896.5 ± 3.8	1.78 ± 0.084
308.15 K, x2 = 0.8	923.8 ± 4	1.772 ± 0.084
308.15 K, x2 = 0.9	952.7 ± 4.1	1.448 ± 0.069
313.15 K, x2 = 0.1	783.6 ± 3.5	0.92 ± 0.046
313.15 K, x2 = 0.2	796.8 ± 3.5	1.004 ± 0.05
313.15 K, x2 = 0.3	811.1 ± 3.6	1.096 ± 0.054
313.15 K, x2 = 0.4	826.9 ± 3.7	1.149 ± 0.056
313.15 K, x2 = 0.5	845.2 ± 3.8	1.27 ± 0.06
313.15 K, x2 = 0.6	866.8 ± 3.9	1.43 ± 0.068
313.15 K, x2 = 0.7	892 ± 4	1.56 ± 0.074
313.15 K, x2 = 0.8	919.5 ± 4.2	1.557 ± 0.074
313.15 K, x2 = 0.9	949 ± 4.3	1.271 ± 0.061
318.15 K, x2 = 0.1	779 ± 3.6	0.86 ± 0.043
318.15 K, x2 = 0.2	792.2 ± 3.7	0.925 ± 0.046
318.15 K, x2 = 0.3	806.6 ± 3.8	0.998 ± 0.049
318.15 K, x2 = 0.4	822.4 ± 3.8	1.039 ± 0.051
318.15 K, x2 = 0.5	840.5 ± 3.9	1.14 ± 0.06
318.15 K, x2 = 0.6	862.1 ± 4	1.27 ± 0.061
318.15 K, x2 = 0.7	887.4 ± 4.2	1.371 ± 0.066
318.15 K, x2 = 0.8	915.5 ± 4.3	1.369 ± 0.066
318.15 K, x2 = 0.9	945.5 ± 4.5	1.121 ± 0.055
323.15 K, x2 = 0.1	774.3 ± 3.8	0.76 ± 0.039
323.15 K, x2 = 0.2	787.5 ± 3.8	0.839 ± 0.043
323.15 K, x2 = 0.3	801.9 ± 3.9	0.902 ± 0.045
323.15 K, x2 = 0.4	817.7 ± 4	0.932 ± 0.047
323.15 K, x2 = 0.5	835.8 ± 4.1	1.02 ± 0.05
323.15 K, x2 = 0.6	857.3 ± 4.2	1.14 ± 0.056
323.15 K, x2 = 0.7	883 ± 4.3	1.17 ± 0.057
323.15 K, x2 = 0.8	911.2 ± 4.5	1.202 ± 0.058
323.15 K, x2 = 0.9	942 ± 4.6	0.975 ± 0.048
